Where two headings read alike, the source gives them in different places.
Tests used:
Test in all cases: biochemical
Assay type in all cases: binding
468 kinases [1] = target: 468 kinases (Homo sapiens, UniProt O43293); settings: DAPK3; read-out: % Inhibition @ 100 nM
468 kinases [2] = target: 468 kinases (Homo sapiens, UniProt O75676); settings: read-out: % Inhibition @ 100 nM
468 kinases [3] = target: 468 kinases (Homo sapiens, UniProt O76039); settings: CDKL5; read-out: % Inhibition @ 100 nM
468 kinases [4] = target: 468 kinases (Homo sapiens, UniProt O96013); settings: PAK4; read-out: % Inhibition @ 100 nM
468 kinases [5] = target: 468 kinases (Homo sapiens, UniProt P00519, T315I); settings: read-out: % Inhibition @ 100 nM
468 kinases [6] = target: 468 kinases (Homo sapiens, UniProt P06213); settings: INSR; read-out: % Inhibition @ 100 nM
468 kinases [7] = target: 468 kinases (Homo sapiens, UniProt P06239); settings: LCK; read-out: % Inhibition @ 100 nM
468 kinases (Homo sapiens, UniProt P06239), sequence (P06239 2-509 limits assumed): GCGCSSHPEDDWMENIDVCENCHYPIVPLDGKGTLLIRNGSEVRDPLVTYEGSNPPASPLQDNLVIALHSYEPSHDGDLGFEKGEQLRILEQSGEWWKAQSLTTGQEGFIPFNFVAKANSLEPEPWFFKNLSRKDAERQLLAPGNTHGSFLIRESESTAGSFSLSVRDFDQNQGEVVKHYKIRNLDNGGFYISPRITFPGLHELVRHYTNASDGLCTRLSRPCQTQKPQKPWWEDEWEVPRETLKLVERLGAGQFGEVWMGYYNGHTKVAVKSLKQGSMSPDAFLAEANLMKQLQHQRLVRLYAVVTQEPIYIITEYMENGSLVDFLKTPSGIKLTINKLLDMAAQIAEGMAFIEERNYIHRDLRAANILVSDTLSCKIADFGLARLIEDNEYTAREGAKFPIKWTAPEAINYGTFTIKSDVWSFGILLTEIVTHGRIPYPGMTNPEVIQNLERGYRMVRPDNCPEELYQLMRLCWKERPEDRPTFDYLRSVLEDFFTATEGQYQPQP

468 kinases [8] = target: 468 kinases (Homo sapiens, UniProt P14616); settings: INSRR; read-out: % Inhibition @ 100 nM
468 kinases (Homo sapiens, UniProt P14616), sequence (P14616 27-742 limits assumed): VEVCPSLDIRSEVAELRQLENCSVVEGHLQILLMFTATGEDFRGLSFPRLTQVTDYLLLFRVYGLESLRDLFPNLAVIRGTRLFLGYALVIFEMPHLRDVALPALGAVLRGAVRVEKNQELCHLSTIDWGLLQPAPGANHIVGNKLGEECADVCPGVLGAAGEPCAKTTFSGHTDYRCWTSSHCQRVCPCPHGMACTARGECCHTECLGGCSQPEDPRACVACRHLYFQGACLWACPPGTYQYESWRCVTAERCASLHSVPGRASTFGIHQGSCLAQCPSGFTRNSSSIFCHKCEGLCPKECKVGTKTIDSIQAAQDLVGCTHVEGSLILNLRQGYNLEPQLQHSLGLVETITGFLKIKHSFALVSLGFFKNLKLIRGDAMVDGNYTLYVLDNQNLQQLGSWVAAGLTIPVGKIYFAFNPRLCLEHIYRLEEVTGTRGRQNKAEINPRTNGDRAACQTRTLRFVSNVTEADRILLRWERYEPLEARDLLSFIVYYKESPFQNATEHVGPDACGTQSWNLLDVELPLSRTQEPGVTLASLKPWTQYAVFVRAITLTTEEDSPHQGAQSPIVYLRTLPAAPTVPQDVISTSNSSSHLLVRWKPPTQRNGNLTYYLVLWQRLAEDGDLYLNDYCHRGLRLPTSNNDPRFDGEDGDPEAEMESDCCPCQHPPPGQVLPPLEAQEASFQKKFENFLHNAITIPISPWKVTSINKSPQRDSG
468 kinases (Homo sapiens, UniProt P14616), sequence (P14616 747-1297 limits assumed): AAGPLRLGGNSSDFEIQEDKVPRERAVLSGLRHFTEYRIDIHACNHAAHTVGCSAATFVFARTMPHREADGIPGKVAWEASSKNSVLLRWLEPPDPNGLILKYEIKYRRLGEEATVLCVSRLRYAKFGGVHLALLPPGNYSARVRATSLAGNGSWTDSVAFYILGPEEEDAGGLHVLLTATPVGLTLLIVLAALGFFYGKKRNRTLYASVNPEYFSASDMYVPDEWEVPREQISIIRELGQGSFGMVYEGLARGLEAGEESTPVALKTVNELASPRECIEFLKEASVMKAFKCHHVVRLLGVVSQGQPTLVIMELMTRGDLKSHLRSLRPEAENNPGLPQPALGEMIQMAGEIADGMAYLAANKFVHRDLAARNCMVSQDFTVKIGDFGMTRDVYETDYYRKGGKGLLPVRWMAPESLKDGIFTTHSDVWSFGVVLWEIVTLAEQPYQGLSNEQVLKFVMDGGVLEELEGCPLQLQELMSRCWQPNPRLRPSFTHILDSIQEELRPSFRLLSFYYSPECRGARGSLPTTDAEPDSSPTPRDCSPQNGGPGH

468 kinases [9] = target: 468 kinases (Homo sapiens, UniProt P17612); settings: PKAC-alpha; read-out: % Inhibition @ 100 nM
468 kinases [10] = target: 468 kinases (Homo sapiens, UniProt P22694); settings: PKAC-beta; read-out: % Inhibition @ 100 nM
468 kinases [11] = target: 468 kinases (Homo sapiens, UniProt P24941); settings: CDK2; read-out: % Inhibition @ 100 nM
468 kinases [12] = target: 468 kinases (Homo sapiens, UniProt P27448); settings: MARK3; read-out: % Inhibition @ 100 nM
468 kinases [13] = target: 468 kinases (Homo sapiens, UniProt P32298); settings: GRK4; read-out: % Inhibition @ 100 nM
468 kinases [14] = target: 468 kinases (Homo sapiens, UniProt P36888); settings: read-out: % Inhibition @ 100 nM
468 kinases (Homo sapiens, UniProt P36888), sequence (P36888 27-993 limits assumed): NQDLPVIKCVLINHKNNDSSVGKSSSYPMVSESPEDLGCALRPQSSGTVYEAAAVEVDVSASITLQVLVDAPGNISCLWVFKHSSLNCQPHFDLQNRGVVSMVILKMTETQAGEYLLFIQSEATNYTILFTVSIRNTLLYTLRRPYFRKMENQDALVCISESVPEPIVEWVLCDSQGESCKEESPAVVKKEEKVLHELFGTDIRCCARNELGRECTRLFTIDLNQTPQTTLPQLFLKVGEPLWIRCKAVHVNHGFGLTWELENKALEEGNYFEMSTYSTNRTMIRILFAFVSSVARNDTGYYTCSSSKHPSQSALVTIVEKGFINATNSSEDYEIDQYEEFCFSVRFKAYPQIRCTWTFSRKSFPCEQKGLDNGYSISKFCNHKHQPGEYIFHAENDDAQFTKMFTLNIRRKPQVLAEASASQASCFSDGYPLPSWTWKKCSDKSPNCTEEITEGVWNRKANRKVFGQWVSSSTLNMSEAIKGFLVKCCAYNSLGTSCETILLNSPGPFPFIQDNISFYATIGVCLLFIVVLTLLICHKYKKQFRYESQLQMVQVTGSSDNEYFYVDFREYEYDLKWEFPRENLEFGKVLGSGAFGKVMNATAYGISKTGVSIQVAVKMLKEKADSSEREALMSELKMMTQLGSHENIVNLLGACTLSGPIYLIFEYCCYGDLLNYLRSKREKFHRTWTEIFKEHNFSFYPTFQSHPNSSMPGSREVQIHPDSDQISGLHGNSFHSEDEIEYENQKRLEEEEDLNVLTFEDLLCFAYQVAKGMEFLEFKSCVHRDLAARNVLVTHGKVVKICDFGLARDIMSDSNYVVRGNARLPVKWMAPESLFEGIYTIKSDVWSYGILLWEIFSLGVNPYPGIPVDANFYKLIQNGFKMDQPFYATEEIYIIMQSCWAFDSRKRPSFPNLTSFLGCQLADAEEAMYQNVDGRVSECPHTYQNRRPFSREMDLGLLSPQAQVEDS

468 kinases [15] = target: 468 kinases (Homo sapiens, UniProt P42681); settings: TXK; read-out: % Inhibition @ 100 nM
468 kinases [16] = target: 468 kinases (Homo sapiens, UniProt P45983); settings: JNK1; read-out: % Inhibition @ 100 nM
468 kinases [17] = target: 468 kinases (Homo sapiens, UniProt P45984); settings: JNK2; read-out: % Inhibition @ 100 nM
468 kinases [18] = target: 468 kinases (Homo sapiens, UniProt P51957); settings: NEK4; read-out: % Inhibition @ 100 nM
468 kinases [19] = target: 468 kinases (Homo sapiens, UniProt P68400); settings: CSNK2A1; read-out: % Inhibition @ 100 nM
468 kinases [20] = target: 468 kinases (Homo sapiens, UniProt Q16832); settings: DDR2; read-out: % Inhibition @ 100 nM
468 kinases (Homo sapiens, UniProt Q16832), sequence (Q16832 22-855 limits assumed): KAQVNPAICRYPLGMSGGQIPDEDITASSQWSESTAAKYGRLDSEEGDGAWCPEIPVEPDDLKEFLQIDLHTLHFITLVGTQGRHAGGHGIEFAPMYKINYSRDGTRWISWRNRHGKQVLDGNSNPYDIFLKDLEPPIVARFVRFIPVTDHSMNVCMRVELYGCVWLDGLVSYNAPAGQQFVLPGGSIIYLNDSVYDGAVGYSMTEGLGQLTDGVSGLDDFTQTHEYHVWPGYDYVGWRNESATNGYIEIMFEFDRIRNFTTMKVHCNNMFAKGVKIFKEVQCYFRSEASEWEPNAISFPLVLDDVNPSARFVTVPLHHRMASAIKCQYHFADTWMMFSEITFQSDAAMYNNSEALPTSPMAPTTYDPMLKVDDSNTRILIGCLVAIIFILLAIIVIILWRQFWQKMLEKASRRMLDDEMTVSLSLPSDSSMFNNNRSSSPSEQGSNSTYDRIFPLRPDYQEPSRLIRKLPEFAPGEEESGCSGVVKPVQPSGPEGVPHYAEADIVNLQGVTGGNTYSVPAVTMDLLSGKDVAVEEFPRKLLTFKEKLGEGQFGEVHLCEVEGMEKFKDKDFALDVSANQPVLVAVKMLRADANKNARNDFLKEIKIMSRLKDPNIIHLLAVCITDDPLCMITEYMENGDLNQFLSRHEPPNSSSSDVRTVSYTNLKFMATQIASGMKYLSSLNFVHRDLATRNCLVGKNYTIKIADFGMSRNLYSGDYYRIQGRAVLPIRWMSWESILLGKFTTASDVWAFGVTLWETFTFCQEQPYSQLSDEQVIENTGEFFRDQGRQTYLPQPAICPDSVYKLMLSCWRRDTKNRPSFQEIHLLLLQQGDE

468 kinases [21] = target: 468 kinases (Homo sapiens, UniProt Q8IYT8); settings: ULK2; read-out: % Inhibition @ 100 nM
468 kinases [22] = target: 468 kinases (Homo sapiens, UniProt Q8TF76); settings: HASPIN; read-out: % Inhibition @ 100 nM
468 kinases [23] = target: 468 kinases (Homo sapiens, UniProt Q99755); settings: PIP5K1A; read-out: % Inhibition @ 100 nM
468 kinases [24] = target: 468 kinases (Homo sapiens, UniProt Q9BWU1); settings: CDK11; read-out: % Inhibition @ 100 nM
468 kinases [25] = target: 468 kinases (Homo sapiens, UniProt Q9H093); settings: SNARK; read-out: % Inhibition @ 100 nM
468 kinases [26] = target: 468 kinases (Homo sapiens, UniProt Q9H2K8); settings: TAOK3; read-out: % Inhibition @ 100 nM
468 kinases [27] = target: 468 kinases (Homo sapiens, UniProt Q9HBY8); settings: SGK2; read-out: % Inhibition @ 100 nM
468 kinases [28] = target: 468 kinases (Homo sapiens, UniProt Q9NSY1); settings: BIKE; read-out: % Inhibition @ 100 nM
468 kinases [29] = target: 468 kinases (Homo sapiens, UniProt Q9P2K8, S808G); settings: GCN2(Kin.Dom.2,S808G); read-out: % Inhibition @ 100 nM
468 kinases [30] = target: 468 kinases (Homo sapiens, UniProt Q9UK32); settings: read-out: % Inhibition @ 100 nM
468 kinases [31] = target: 468 kinases (Homo sapiens, UniProt Q9UQM7); settings: CAMK2A; read-out: % Inhibition @ 100 nM
468 kinases [32] = target: 468 kinases (Plasmodium falciparum, UniProt P62344); settings: PFCDPK1 (P.falciparum); read-out: % Inhibition @ 100 nM
468 kinases (Plasmodium falciparum, UniProt P62344), sequence (P62344 2-524 limits assumed): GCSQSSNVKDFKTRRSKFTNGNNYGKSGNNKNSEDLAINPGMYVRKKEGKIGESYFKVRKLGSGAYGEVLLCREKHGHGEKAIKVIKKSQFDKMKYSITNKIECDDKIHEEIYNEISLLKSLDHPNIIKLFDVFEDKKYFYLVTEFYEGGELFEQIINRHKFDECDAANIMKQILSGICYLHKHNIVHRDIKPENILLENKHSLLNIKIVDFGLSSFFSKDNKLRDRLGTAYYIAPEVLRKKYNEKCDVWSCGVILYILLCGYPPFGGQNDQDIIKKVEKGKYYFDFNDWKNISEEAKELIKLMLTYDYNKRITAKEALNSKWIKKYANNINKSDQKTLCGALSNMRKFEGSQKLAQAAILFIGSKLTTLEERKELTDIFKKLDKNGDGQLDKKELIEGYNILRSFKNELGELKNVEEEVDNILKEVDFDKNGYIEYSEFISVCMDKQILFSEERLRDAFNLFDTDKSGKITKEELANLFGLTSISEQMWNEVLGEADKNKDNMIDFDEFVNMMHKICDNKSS

## CCN(CC)CCNC(=O)c1c(C)[nH]c(/C=C2\C(=O)Nc3ccc(CCO)cc32)c1C [Compound No. 10, (Z)—N-(2-(Diethylamino)ethyl)-5-((5-(2-hydroxyethyl)-2-oxoindolin-3-ylidene)methyl)-2,4-dimethyl-1H-pyrrole-3-carboxamide]
468 kinases [1]
  inhibition at 0.1 µM: 5%
468 kinases [2]; RPS6KA4(Kin.Dom.1-N-terminal)
  inhibition at 0.1 µM: 8%
468 kinases [2]; RPS6KA4(Kin.Dom.2-C-terminal)
  inhibition at 0.1 µM: 0%
468 kinases [3]
  inhibition at 0.1 µM: 0%
468 kinases [4]
  inhibition at 0.1 µM: 0%
468 kinases [5]; ABL1 (T3151)-nonphosphorylated
  inhibition at 0.1 µM: 56%
468 kinases [5]; ABL1 (T3151)-phosphorylated
  inhibition at 0.1 µM: 91.8%
468 kinases [6]
  inhibition at 0.1 µM: 0%
468 kinases [7]
  inhibition at 0.1 µM: 37%
468 kinases [8]
  inhibition at 0.1 µM: 1%
468 kinases [9]
  inhibition at 0.1 µM: 0%
468 kinases [10]
  inhibition at 0.1 µM: 0%
468 kinases [11]
  inhibition at 0.1 µM: 0%
468 kinases [12]
  inhibition at 0.1 µM: 0%
468 kinases [13]
  inhibition at 0.1 µM: 79%
468 kinases [14]; FLT3 -autoinhibited
  inhibition at 0.1 µM: 81%
468 kinases [14]; FLT3
  inhibition at 0.1 µM: 96.7%
468 kinases [15]
  inhibition at 0.1 µM: 10%
468 kinases [16]
  inhibition at 0.1 µM: 9%
468 kinases [17]
  inhibition at 0.1 µM: 0%
468 kinases [18]
  inhibition at 0.1 µM: 0%
468 kinases [19]
  inhibition at 0.1 µM: 0%
468 kinases [20]
  inhibition at 0.1 µM: 12%
468 kinases [21]
  inhibition at 0.1 µM: 71%
468 kinases [22]
  inhibition at 0.1 µM: 59%
468 kinases [23]
  inhibition at 0.1 µM: 98%
468 kinases [24]
  inhibition at 0.1 µM: 12%
468 kinases [25]
  inhibition at 0.1 µM: 80%
468 kinases [26]
  inhibition at 0.1 µM: 31%
468 kinases [27]
  inhibition at 0.1 µM: 0%
468 kinases [28]
  inhibition at 0.1 µM: 97.4%
468 kinases [29]
  inhibition at 0.1 µM: 28%
468 kinases [30]; RSK4(Kin.Dom.1-N-terminal)
  inhibition at 0.1 µM: 0%
468 kinases [30]; RSK4(Kin.Dom.2-C-terminal)
  inhibition at 0.1 µM: 4%
468 kinases [31]
  inhibition at 0.1 µM: 6%
468 kinases [32]
  inhibition at 0.1 µM: 0%

## CCN(CC)CCNC(=O)c1c(C)[nH]c(/C=C2\C(=O)Nc3ccc(CCC(N)=O)cc32)c1C [Compound No. 16, (Z)-5-((5-(3-Amino-3-oxopropyl)-2-oxoindolin-3-ylidene)methyl)-N-(2-(diethylamino)ethyl)-2,4-dimethyl-1H-pyrrole-3-carboxamide]
468 kinases [1]
  inhibition at 0.1 µM: 21%
468 kinases [2]; RPS6KA4(Kin.Dom.1-N-terminal)
  inhibition at 0.1 µM: 34%
468 kinases [2]; RPS6KA4(Kin.Dom.2-C-terminal)
  inhibition at 0.1 µM: 35%
468 kinases [3]
  inhibition at 0.1 µM: 5%
468 kinases [4]
  inhibition at 0.1 µM: 0%
468 kinases [5]; ABL1 (T3151)-nonphosphorylated
  inhibition at 0.1 µM: 61%
468 kinases [5]; ABL1 (T3151)-phosphorylated
  inhibition at 0.1 µM: 86%
468 kinases [6]
  inhibition at 0.1 µM: 25%
468 kinases [7]
  inhibition at 0.1 µM: 16%
468 kinases [8]
  inhibition at 0.1 µM: 10%
468 kinases [9]
  inhibition at 0.1 µM: 0%
468 kinases [10]
  inhibition at 0.1 µM: 13%
468 kinases [11]
  inhibition at 0.1 µM: 7%
468 kinases [12]
  inhibition at 0.1 µM: 0%
468 kinases [13]
  inhibition at 0.1 µM: 72%
468 kinases [14]; FLT3 -autoinhibited
  inhibition at 0.1 µM: 61%
468 kinases [14]; FLT3
  inhibition at 0.1 µM: 62%
468 kinases [15]
  inhibition at 0.1 µM: 16%
468 kinases [16]
  inhibition at 0.1 µM: 7%
468 kinases [17]
  inhibition at 0.1 µM: 32%
468 kinases [18]
  inhibition at 0.1 µM: 9%
468 kinases [19]
  inhibition at 0.1 µM: 78%
468 kinases [20]
  inhibition at 0.1 µM: 27%
468 kinases [21]
  inhibition at 0.1 µM: 82%
468 kinases [22]
  inhibition at 0.1 µM: 68%
468 kinases [23]
  inhibition at 0.1 µM: 91.1%
468 kinases [24]
  inhibition at 0.1 µM: 3%
468 kinases [25]
  inhibition at 0.1 µM: 81%
468 kinases [26]
  inhibition at 0.1 µM: 56%
468 kinases [27]
  inhibition at 0.1 µM: 14%
468 kinases [28]
  inhibition at 0.1 µM: 93.6%
468 kinases [29]
  inhibition at 0.1 µM: 0%
468 kinases [30]; RSK4(Kin.Dom.1-N-terminal)
  inhibition at 0.1 µM: 70%
468 kinases [30]; RSK4(Kin.Dom.2-C-terminal)
  inhibition at 0.1 µM: 22%
468 kinases [31]
  inhibition at 0.1 µM: 45%
468 kinases [32]
  inhibition at 0.1 µM: 14%
